Measurements as given in patent US10294202B2, “Pyrrolidinones as herbicides” (FMC Corporation, priority 2013, dated 2019).

Tests used:
corn = test: Test A pre-/postemergence herbicide test; assay type: in vivo, Zea mays
How it was run: (§1)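 Scoring was visual, relative to untreated controls, on a 0–100 scale after about 10 greenhouse days. Preemergence treatment used a directed soil spray over seeded loam/sand; postemergence treatment targeted one- to two-leaf plants of 2–10 cm.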

pigweed [1] = test: Test C pre-/postemergence herbicide test; assay type: in vivo, Amaranthus retroflexus; conditions: Preemergence
How it was run: (§2)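 Response scores range from 0, meaning no effect, to 100, meaning complete control, assigned visually by comparison with controls roughly two weeks (13 to 15 days) after spraying. Applications were made preemergence to seeded loam–sand soil and postemergence to 1- to 4-leaf plants.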

ragweed = test: Test C pre-/postemergence herbicide test; assay type: in vivo, Ambrosia elatior; conditions: Preemergence
How it was run: as §2

waterhemp = test: Test C pre-/postemergence herbicide test; assay type: in vivo, Amaranthus rudis; conditions: Preemergence
How it was run: as §2

johnsongrass = test: Test C pre-/postemergence herbicide test; assay type: in vivo, Sorghum halepense; conditions: Preemergence; for Plant response rating (scale of 0 to 100), Johnsongrass: 250 g ai/ha
How it was run: as §2

pigweed [2] = test: Test A pre-/postemergence herbicide test; assay type: in vivo, Amaranthus retroflexus
How it was run: as §1

ryegrass, Italian = test: Test C pre-/postemergence herbicide test; assay type: in vivo, Lolium multiflorum; conditions: Preemergence
How it was run: as §2

galium = test: Test C pre-/postemergence herbicide test; assay type: in vivo, Galium aparine; conditions: Preemergence; for Plant response rating (scale of 0 to 100), Galium: 250 g ai/ha
How it was run: as §2

rice = test: Test B flooded paddy test; assay type: in vivo, Oryza sativa; conditions: Flood, scale of 0 to 100 where 0 is no effect and 100 is complete control
How it was run: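 Scoring: visual, compared with untreated controls, 0 = no effect through 100 = complete control, taken 13 to 15 days after treatment in the greenhouse. Compounds had been added to paddy water over soil flooded 3 cm deep at the plants' 2-leaf stage.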

giant foxtail = test: Test A pre-/postemergence herbicide test; assay type: in vivo, Setaria faberii
How it was run: as §1

nutsedge, yellow = test: Test C pre-/postemergence herbicide test; assay type: in vivo, Cyperus esculentus; conditions: Preemergence; for Plant response rating, Nutsedge, Yellow: 125 g ai/ha; for Plant response rating (scale of 0 to 100), Nutsedge, Yellow: 250 g ai/ha
How it was run: as §2

[3] = Postemergence, 125 g ai/ha, visual rating on 0 to 100 scale (0 no effect, 100 complete control), approx. 10 days
[4] = Postemergence, 500 g ai/ha, 0 to 100 scale (0 no effect, 100 complete control)
[5] = 31 g ai/ha, scale 0 to 100, 0 is no effect and 100 is complete control
[6] = 62 g ai/ha, scale 0 to 100 (0 no effect, 100 complete control)
[7] = Preemergence, 125 g ai/ha, 0 to 100 scale where 0 is no effect and 100 is complete control
[8] = Preemergence, 500 g ai/ha, visual rating on 0 to 100 scale (0 no effect, 100 complete control)
[9] = Postemergence, 125 g ai/ha, 0 to 100 scale, 0 no effect, 100 complete control
[10] = Preemergence, 125 g ai/ha, visual rating on 0 to 100 scale (0 no effect, 100 complete control)
[11] = preemergence, 500 g ai/ha, 0 to 100 scale
[12] = 125 g ai/ha, scale 0 to 100 (0 no effect, 100 complete control)

CC(C)c1cccc(C2CNC(=O)C2C(=O)Nc2cccc(F)c2F)c1 (centres unmarked) [Compound 319]
Plant response rating, Corn (corn; [3]): 40
Plant response rating, Corn (corn; [4]): 80
Pigweed plant response rating (pigweed [1]; [5]): 30
Pigweed plant response rating (pigweed [1]; [6]): 25
Plant response rating, Pigweed (pigweed [1]; 125 g ai/ha, scale 0 to 100): 40
Ragweed plant response rating (ragweed; [6]): 15
Plant response rating, Ragweed (ragweed; 125 g ai/ha, scale 0 to 100): 40
Waterhemp plant response rating (waterhemp; [6]): 35
Plant response rating, Waterhemp (waterhemp; 125 g ai/ha, scale 0 to 100): 35
Johnsongrass plant response rating (johnsongrass; [5]): 40
Johnsongrass plant response rating (johnsongrass; [6]): 55
Plant response rating, Johnsongrass (johnsongrass; 125 g ai/ha, scale 0 to 100): 65
Plant response rating (scale of 0 to 100), Johnsongrass (johnsongrass): 75
Plant response rating, Pigweed (pigweed [2]; [3]): 0
Plant response rating, Pigweed (pigweed [2]; [4]): 20
Plant response rating, Pigweed (pigweed [2]; [7]): 0
Pigweed plant response rating (pigweed [2]; [8]): 20
Ryegrass, Italian plant response rating (ryegrass, Italian; [6]): 10
Plant response rating, Ryegrass, Italian (ryegrass, Italian; 125 g ai/ha, scale 0 to 100): 20
Galium plant response rating (galium; [5]): 95
Galium plant response rating (galium; [6]): 70
Plant response rating, Galium (galium; 125 g ai/ha, scale 0 to 100): 80
Plant response rating (scale of 0 to 100), Galium (galium): 85
Plant response rating, Rice (rice; 500 g ai/ha): 0
Plant response rating, Foxtail, Giant (giant foxtail; [3]): 50
Plant response rating, Foxtail, Giant (giant foxtail; [4]): 90
Plant response rating, Foxtail, Giant (giant foxtail; [7]): 90
Foxtail, Giant plant response rating (giant foxtail; [8]): 90
Nutsedge, Yellow plant response rating (nutsedge, yellow; [5]): 0
Nutsedge, Yellow plant response rating (nutsedge, yellow; [6]): 0
Plant response rating, Nutsedge, Yellow (nutsedge, yellow; scale 0 to 100): 0
Plant response rating (scale of 0 to 100), Nutsedge, Yellow (nutsedge, yellow): 30

O=C1NCC(c2cccc(OC(F)(F)F)c2)C1C(=O)Nc1ccccc1F (centres unmarked) [Compound 69]
Plant response rating, Corn (corn; [9]): 20
Plant response rating, Corn (corn; [4]): 90
Corn plant response rating (corn; [10]): 0
Plant response rating, Corn (corn; [11]): 0
Pigweed plant response rating (pigweed [1]; [5]): 15
Plant response rating, Pigweed (pigweed [1]; 62 g ai/ha, scale 0 to 100): 25
Plant response rating, Pigweed (pigweed [1]; [12]): 25
Plant response rating (scale of 0 to 100), Pigweed (pigweed [1]; 250 g ai/ha): 25
Ragweed plant response rating (ragweed; [5]): 0
Plant response rating, Ragweed (ragweed; 62 g ai/ha, scale 0 to 100): 0
Plant response rating, Ragweed (ragweed; [12]): 0
Plant response rating (scale of 0 to 100), Ragweed (ragweed; 250 g ai/ha): 20
Johnsongrass plant response rating (johnsongrass; [5]): 0
Plant response rating, Johnsongrass (johnsongrass; 62 g ai/ha, scale 0 to 100): 0
Plant response rating, Johnsongrass (johnsongrass; [12]): 0
Plant response rating (scale of 0 to 100), Johnsongrass (johnsongrass): 0
Plant response rating, Pigweed (pigweed [2]; [9]): 20
Plant response rating, Pigweed (pigweed [2]; [4]): 30
Pigweed plant response rating (pigweed [2]; [10]): 0
Plant response rating, Pigweed (pigweed [2]; [11]): 20
Ryegrass, Italian plant response rating (ryegrass, Italian; [5]): 0
Plant response rating, Ryegrass, Italian (ryegrass, Italian; 62 g ai/ha, scale 0 to 100): 0
Plant response rating, Ryegrass, Italian (ryegrass, Italian; [12]): 0
Plant response rating (scale of 0 to 100), Ryegrass, Italian (ryegrass, Italian; 250 g ai/ha): 10
Galium plant response rating (galium; [5]): 0
Plant response rating, Galium (galium; 62 g ai/ha, scale 0 to 100): 0
Plant response rating, Galium (galium; [12]): 5
Plant response rating (scale of 0 to 100), Galium (galium): 75
Plant response rating, Rice (rice; 250 g ai/ha): 30
Plant response rating, Foxtail, Giant (giant foxtail; [9]): 80
Plant response rating, Foxtail, Giant (giant foxtail; [4]): 80
Foxtail, Giant plant response rating (giant foxtail; [10]): 90
Plant response rating, Foxtail, Giant (giant foxtail; [11]): 90
Nutsedge, Yellow plant response rating (nutsedge, yellow; [5]): 0
Plant response rating, Nutsedge, Yellow (nutsedge, yellow; scale 0 to 100 (0 no effect, 100 complete control)): 0
Plant response rating (scale of 0 to 100), Nutsedge, Yellow (nutsedge, yellow): 10
